Target: Urease subunit alpha (Sporosarcina pasteurii, UniProt P41020)
Experiment: Urease Inhibition Assay
Conditions: pH 7
Protocol: This assay was modified from Berthelot assay and was employed for the determination of urease activity. The assay is based on the hydrolysis of urea into ammonia which reacts with phenol-hypochlorite to form light blue colored complex measured at 625 nm. A total volume of 85 µl assay mixture contained 10 µl of 50 mM phosphate buffer, pH 7.0, 10 µl of sample solution and 25 µl of Bacillus pasteurii urease (Sigma) solution (0.015 units). The contents were pre-incubated at 37 °C for 10 min. Then, 40 µl of urea stock solution (20 mM) was added to each well and incubation continued at 37 °C for further 10 min and preread at 625 nm using the 96-well plate reader Synergy HT (Biotek Inc.). Phenol hypochlorite (115 µl) reagent was added in each well (freshly prepared by mixing 45 µl phenol reagent with 70 µl of alkali reagent). For color development, incubation was done at 37 °C for another 10 min. Absorbance was again measured at 625 nm.

Sequence of Urease subunit alpha (P41020 as listed by the source): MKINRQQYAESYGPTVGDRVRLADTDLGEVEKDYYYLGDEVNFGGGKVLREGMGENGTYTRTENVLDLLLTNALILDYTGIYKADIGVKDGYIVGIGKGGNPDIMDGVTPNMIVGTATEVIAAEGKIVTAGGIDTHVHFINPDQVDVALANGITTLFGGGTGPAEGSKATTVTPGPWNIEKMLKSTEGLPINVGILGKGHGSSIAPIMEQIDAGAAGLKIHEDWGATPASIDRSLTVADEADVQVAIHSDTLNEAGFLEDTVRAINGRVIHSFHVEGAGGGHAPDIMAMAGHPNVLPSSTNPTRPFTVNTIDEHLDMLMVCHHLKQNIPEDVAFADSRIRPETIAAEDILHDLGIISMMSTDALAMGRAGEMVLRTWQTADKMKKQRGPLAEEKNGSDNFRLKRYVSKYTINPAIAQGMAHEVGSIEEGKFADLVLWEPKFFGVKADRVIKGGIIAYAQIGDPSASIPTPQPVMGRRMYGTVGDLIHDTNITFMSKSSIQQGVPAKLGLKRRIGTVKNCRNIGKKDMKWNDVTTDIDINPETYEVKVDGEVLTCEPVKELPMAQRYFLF

## COc1cc(/C=N/N=C2\NC(=O)CS2)cc(Br)c1OC [(E)-2((E)-(3-Bromo-4,5-dimethoxybenzylidene)hydrazono) thiazolidine-4-one (7)]
  IC50: 36.6 µM

## O=C1CS/C(=N/N=C/c2cccc([N+](=O)[O-])c2)N1 [(E)-2((E)-(3-nitrobenzylidene)hydrazono)thiazolidin-4-one (8)]
  IC50: 8.43 µM

## O=C1CS/C(=N/N=C\c2ccc(O)cc2)N1 [(E)-2((E)-(4-Hydroxybenzylidin)hydrazono)thiazolidine-4-one (6)]
  IC50: 14.6 µM

## O=C1CSC(N/N=C/c2ccc([N+](=O)[O-])cc2)=N1 [(E)-2((E)-(4-Nitrobenzylidene)hydrazono)thiazolidine-4-one (2)]
  IC50: 26.9 µM

## COc1cccc(/C=N/N=C2\NC(=O)CS2)c1OC [(E)-2-((E)-(2,3-Dimethoxybenzylidene)hydrazono)thiazolidin-4-one (4)]
  IC50: 52.5 µM

## O=C1CS/C(=N/N=C/c2ccccc2[N+](=O)[O-])N1 [(E)-2-((E)-(2-Nitrobenzylidene)hydrazono)thiazolidin-4-one (1)]
  IC50: 47.5 µM

## O=C1CS/C(=N/N=C/c2cc(Cl)cc(Cl)c2O)N1 [(E)-2-((E)-(3,5-Dichloro-2-hydroxybenzylidene)hydrazono)thiazolidin-4-one (5)]
  IC50: 26.7 µM

## O=C1CS/C(=N/N=C\c2ccc(O)c(Cl)c2)N1 [(E)-2-((E)-(3-Chloro-4-hydroxybenzylideno)thiazolidin-4-one (3)]
  IC50: 9.34 µM

## COc1cc(/C=N/N=C2\NC(=O)CS2)cc(OC)c1O [(E)-2-((E)-(4-Hyrazoxy-3,5-dimethoxybenzylidene)hydrazono)thiazolidin-4-one (9)]
  IC50: 37.9 µM

## O=C1CS/C(=N/N=C\C2C=Nc3ccccc32)N1 (centres undefined) [(E)-2-(E)-((1H-Indole-3-yl)methylene)hydrazono)thiazolidine-4-one (16)]
  IC50: 51.4 µM

## C/C(=N/N=C1\NC(=O)CS1)c1ccc([N+](=O)[O-])cc1Br [(Z)-2-((Z)-(1-(2-Bromo-4-nitrophenyl)ethylidene)hydrazono)thiazolidine-4-one (15)]
  IC50: 2.31 µM

## COc1ccc(/C=N\N=C2/NC(=O)CS2)c(OC)c1 [(Z)-2-((Z)-(2,4-Dimethoxybenzoylidine)hydrazono)thiazolidine-4-one (18)]
  IC50: 69.6 µM

## CCOc1ccc(/C=N\N=C2/NC(=O)CS2)cc1OC [(Z)-2-((Z)-(4-Ethoxy-3-methoxybenzoylidine)hydrazono)thiazolidine-4-one (17)]
  IC50: 5.75 µM

## NC(N)=S [thiocarbamide]
  IC50: 21.2 µM
